Test results from paper PMC5516028, “Molecular tools for GABAA receptors: High affinity ligands for β1-containing subtypes” (Scientific Reports, 2017).
Several values for one entry are separate records, joined by “and”; a condition that tells them apart may be missing. Identical values can stand only once. Blank lines part the entries; values can stand above or below the compound they belong to.

Columns and labels:
α1β2 GABAA receptors = molecular target: T1, α1β2 GABAA receptors (Rattus norvegicus, UniProt P62813+P63138); assay: Two electrode voltage clamp in Xenopus laevis oocytes, α1β2; format: cell-based; settings: α1β2
T1 construct: expressed in transfected cells; host or cells: Xenopus laevis oocytes, mRNA injected
Description: (§1) cDNA’s of rat GABAA receptor subunits α1, α4, β1, β2, β3 and γ2S were cloned as described. cDNAs of the rat subunits α2, α3 and α5 were gifts from P. Malherbe, that of α6 and γ1 were gifts of P. Seeburg and that of δ was a gift of C. Czajkowski. The mutants were constructed using the Q5 Site-Directed Mutagenesis Kit (New England Biolabs) following manufacturer’s instruction. We used the wild-type rat β3-pCI vector as template and the primers […] and […] resulting in a substitution of amino acid N41 (AAC) to R (AGG). We used the wild-type rat β1-pCI vector as template and the primers […] and […] resulting in a substitution of amino acid R41 (CGG) to N (AAC). The mutated subunits were confirmed by sequencing.
(§2) In vitro transcription of mRNA was based on the cDNA expression vectors encoding for rat GABAA receptor subunits α1–6, β1-3, γ1,2, δ and the two β mutants (β1R41N and β3N41R)[40]. After linearizing the cDNA vectors with appropriate restriction endonucleases, the cDNA was purified and concentrated with the DNA Clean and Contentrator ^TM Kit (Zymoresearch, Catalog No. D4005). Capped transcripts of the purified cDNA were produced using the mMESSAGE mMACHINE® T7 transcription kit (Ambion, TX, USA) and polyadenylated using the Ambion PolyA tailing kit (Ambion). After transcription and polyadenylation the RNA was purified with the MEGAclear ^TM Kit (Ambion, Catalog No. AM1908). The final RNA concentration was measured on NanoDrop® ND-1000 and finally diluted and stored in diethylpyrocarbonate-treated water at −80 °C. For the microinjection, the RNA of αβ receptor combinations was mixed at 1:1 ratio (which leads to αβ receptors that consist of predominantly 3 beta and 2 alpha subunits[27]), for αkβlγm (k = 1–3, l = 1, 3, m = 1, 2) receptors at 1:1:5 ratio, for αkβ3γ2 (k = 4–6) and αkβlδ (k = 1, 4 and 6, l = 1, 3) receptor combinations at 3:1:5 ratio.
(§3) Mature female Xenopus laevis (Nasco, WI) were anesthetized in a bath of ice-cold 0.17% Tricain (Ethyl-m-aminobenzoate, Sigma, MO) before decapitation in full accordance with all rules of the Austrian animal protection law (see http://www.ris.bka.gv.at/Dokumente/BgblAuth/BGBLA_2012_I_114/BGBLA_2012_I_114.pdf) and the Austrian animal experiment by-laws (see https://www.ris.bka.gv.at/Dokumente/BgblAuth/BGBLA_2012_II_522/BGBLA_2012_II_522.pdf) which implement the European Directive 2010/63/EU (see http://eur-lex.europa.eu/LexUriServ/LexUriServ.do?uri=OJ:L:2010:276:0033:0079:en:PDF) into the Austrian law (all information accessed on July 27, 2016). The frog’s ovaries were transferred to ND96 medium (96 mM NaCl, 2 mM KCl, 1 mM MgCl2, 5 mM HEPES; pH 7.5). Stage 5–6 oocytes with the follicle cell layer around them were roughly dissected with forceps into packages of 10–15 cells and washed in Ca^2+-free ND96 medium. Cells were then digested with collagenase (type IA, Sigma, NO, 1 mg/mL ND96) at 18 °C shaking at 30 rpm for 30–60 minutes and gently defolliculated with the aid of a glass pipette with appropriate tip diameter and a platinum loop. Defolliculated cells were stored at 18 °C for at least 6 hours in ND96 solution containing penicillin G (10000 IU/100 mL) and streptomycin (10 mg/100 mL) in order to preselect and exclude damaged cells from further treatment. Healthy defolliculated oocytes were injected with an aqueous solution of mRNA. A total of 4.5 ng of mRNA per oocyte was injected with a Nanoject II (Drummond). After injection of mRNA, oocytes were incubated at 18 °C (ND96 + antibiotic) for 2–3 days for αβ receptors and for 3–4 days for αβγ or αβδ receptors before recording. When cells were measured at later time points, oocytes were stored at +4 °C instead of 18 °C.
(§4) For electrophysiological recordings, oocytes were placed on a nylon-grid in a bath of Ca^2+-containing NDE solution medium [96 mM NaCl, 5 mM HEPES-NaOH (pH 7.5), 2 mM KCl, 1 mM MgCl2, 1.8 mM CaCl2].

α1β3N41R GABAA receptors = molecular target: T2, α1β3N41R GABAA receptors (Rattus norvegicus, UniProt P62813+P63079, N66R); assay: Two electrode voltage clamp in Xenopus laevis oocytes, mutant α1β3N41R; format: cell-based
T2 construct: expressed in transfected cells; host or cells: Xenopus laevis oocytes, mRNA injected
Description: as §1, §2, §3, §4

α1β1 GABAA receptors = molecular target: T3, α1β1 GABAA receptors (Rattus norvegicus, UniProt P15431+P62813); assay: Two electrode voltage clamp in Xenopus laevis oocytes, α1β1; format: cell-based; settings: α1β1
T3 construct: expressed in transfected cells; host or cells: Xenopus laevis oocytes, mRNA injected
Description: as §1, §2, §3, §4

α1β1R41N GABAA receptors = molecular target: T4, α1β1R41N GABAA receptors (Rattus norvegicus, UniProt P15431+P62813, R66N); assay: Two electrode voltage clamp in Xenopus laevis oocytes, mutant α1β1R41N; format: cell-based
T4 construct: expressed in transfected cells; host or cells: Xenopus laevis oocytes, mRNA injected
Description: as §1, §2, §3, §4

α1β3 GABAA receptors = molecular target: T5, α1β3 GABAA receptors (Rattus norvegicus, UniProt P62813+P63079); assay: Two electrode voltage clamp in Xenopus laevis oocytes, α1β3; format: cell-based
T5 construct: expressed in transfected cells; host or cells: Xenopus laevis oocytes, mRNA injected
Description: as §1, §2, §3, §4

[1] = tested on: δ subunit containing GABAA receptors; assay: Control of δ subunit incorporation with DS2; format: cell-based, rat; settings: 1 µM
Description: For electrophysiological recordings, oocytes were placed on a nylon-grid in a bath of Ca^2+-containing NDE solution medium [96 mM NaCl, 5 mM HEPES-NaOH (pH 7.5), 2 mM KCl, 1 mM MgCl2, 1.8 mM CaCl2]. For current measurements the oocytes were impaled with two microelectrodes (1–3 MΩ resistance) filled with 2 M KCl. […] The EC3–5 was determined at the beginning of each experiment. Drugs were diluted into NDE from DMSO-solutions resulting in a final concentration of 0.1% DMSO perfusing the oocytes. […] Between two applications, oocytes were washed in NDE for up to 15 min to ensure full recovery from desensitization. Maximum currents measured in mRNA injected oocytes were in the microampere range for all subtypes of GABAA receptors. […] In order to monitor receptor composition, diazepam (~200% modulation at 1 µM) was used to investigate the incorporation of the γ2[25] subunit, DS2 (>800% modulation at 1 µM) for the incorporation of the δ subunit and triazolam (>200% modulation at 10 µM) for the γ1 incorporation. […] All recordings were performed at room temperature at a holding potential of […] using a Dagan TEV-200A two-electrode voltage clamp (Dagan Corporation, Mineapolis, MN). Data were digitized, recorded and measured using an Axon Digidata- 1550 low-noise data acquisition system (Axon Instruments, Union City, CA). […]

[2] = read-out: efficacy, % of control current (GABA EC3-5 = 100%), 30 nM

T4 sequence (P62813 28-455): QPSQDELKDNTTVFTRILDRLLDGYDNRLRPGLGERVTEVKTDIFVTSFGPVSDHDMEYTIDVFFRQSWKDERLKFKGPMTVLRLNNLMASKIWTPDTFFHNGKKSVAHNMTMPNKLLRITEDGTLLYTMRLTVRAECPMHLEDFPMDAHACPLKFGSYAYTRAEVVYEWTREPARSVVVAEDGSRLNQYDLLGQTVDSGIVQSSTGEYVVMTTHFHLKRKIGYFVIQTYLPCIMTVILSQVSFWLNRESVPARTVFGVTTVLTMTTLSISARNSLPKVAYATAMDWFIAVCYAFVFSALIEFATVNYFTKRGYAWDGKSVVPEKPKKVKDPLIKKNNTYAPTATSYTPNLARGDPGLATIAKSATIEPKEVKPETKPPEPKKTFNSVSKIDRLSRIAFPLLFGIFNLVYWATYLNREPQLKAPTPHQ
T4 sequence (P15431 26-474 R66N): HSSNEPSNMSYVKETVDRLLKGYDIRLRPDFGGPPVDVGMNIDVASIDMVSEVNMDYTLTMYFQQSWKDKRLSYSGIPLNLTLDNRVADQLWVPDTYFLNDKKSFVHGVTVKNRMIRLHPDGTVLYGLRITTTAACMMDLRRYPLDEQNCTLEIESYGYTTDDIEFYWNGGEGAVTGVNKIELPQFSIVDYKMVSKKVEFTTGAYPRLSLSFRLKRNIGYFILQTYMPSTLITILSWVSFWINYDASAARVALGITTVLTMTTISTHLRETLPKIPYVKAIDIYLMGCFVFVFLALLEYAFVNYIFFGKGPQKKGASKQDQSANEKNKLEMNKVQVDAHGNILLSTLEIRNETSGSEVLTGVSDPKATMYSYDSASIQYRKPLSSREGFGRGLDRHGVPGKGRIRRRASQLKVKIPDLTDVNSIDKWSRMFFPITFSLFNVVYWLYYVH
T3 sequence (P62813 28-455): as the sequence (P62813 28-455) above
T3 sequence (P15431 26-474): as the sequence (P15431 26-474 R66N) above, with N41R counted along it
T1 sequence (P62813 28-455): as the sequence (P62813 28-455) above
T1 sequence (P63138 25-474 limits assumed): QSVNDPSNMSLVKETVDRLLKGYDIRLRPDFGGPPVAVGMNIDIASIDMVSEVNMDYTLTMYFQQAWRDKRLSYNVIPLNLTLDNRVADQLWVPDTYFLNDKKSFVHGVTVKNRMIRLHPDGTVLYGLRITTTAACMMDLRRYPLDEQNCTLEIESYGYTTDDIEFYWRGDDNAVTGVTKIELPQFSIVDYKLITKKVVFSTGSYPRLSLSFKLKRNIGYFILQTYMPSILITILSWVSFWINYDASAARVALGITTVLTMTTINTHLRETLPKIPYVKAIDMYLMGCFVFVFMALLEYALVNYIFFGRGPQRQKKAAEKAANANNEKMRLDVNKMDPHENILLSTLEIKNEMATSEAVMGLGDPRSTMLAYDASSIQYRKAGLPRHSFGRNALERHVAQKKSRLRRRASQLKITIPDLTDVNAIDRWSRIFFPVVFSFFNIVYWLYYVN
T5 sequence (P62813 28-455): as the sequence (P62813 28-455) above
T5 sequence (P63079 26-473): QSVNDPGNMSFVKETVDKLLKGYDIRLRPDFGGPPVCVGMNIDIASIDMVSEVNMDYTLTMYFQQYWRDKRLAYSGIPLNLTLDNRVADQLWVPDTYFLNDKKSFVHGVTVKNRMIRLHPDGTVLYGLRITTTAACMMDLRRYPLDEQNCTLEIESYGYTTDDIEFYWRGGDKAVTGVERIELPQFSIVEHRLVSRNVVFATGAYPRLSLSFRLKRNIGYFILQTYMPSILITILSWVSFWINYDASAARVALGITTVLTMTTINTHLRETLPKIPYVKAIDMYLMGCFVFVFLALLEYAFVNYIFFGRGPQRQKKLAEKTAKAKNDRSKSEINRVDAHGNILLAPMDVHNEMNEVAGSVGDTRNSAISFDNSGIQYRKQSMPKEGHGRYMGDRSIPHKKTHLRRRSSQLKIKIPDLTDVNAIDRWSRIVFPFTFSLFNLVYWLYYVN
T2 sequence (P62813 28-455): as the sequence (P62813 28-455) above
T2 sequence (P63079 26-473 N66R): as the sequence (P63079 26-473) above, with N41R counted along it

activity at 0.03 µM (α1β2 GABAA receptors; [2]): 98 ± 3% | activity at 0.1 µM (α1β2 GABAA receptors; read-out: efficacy, % of control current (GABA EC3-5 = 100%), 100 nM): 99.5 ± 5.5% | activity at 1 µM (α1β2 GABAA receptors; read-out: efficacy, % of control current (GABA EC3-5 = 100%), 1 µM): 97.5 ± 9.5% | activity at 10 µM (α1β2 GABAA receptors; read-out: efficacy, % of control current (GABA EC3-5 = 100%), 10 µM): 118 ± 9% | activity at 30 µM (α1β2 GABAA receptors; read-out: efficacy, % of control current (GABA EC3-5 = 100%), 30 µM): 105 ± 8.3% | EC50 (α1β3N41R GABAA receptors; co-applied with GABA EC3-5, read-out: EC50 values for the mutated receptors): 1.87 µM | activity at 0.03 µM (α1β1 GABAA receptors; [2]): 100% | activity at 0.3 µM (α1β1 GABAA receptors; read-out: efficacy, % of control current (GABA EC3-5 = 100%), 300 nM): 153 ± 9.5% | Hill slope (nH) (α1β1 GABAA receptors): 1.3±0.2 | EC50 (α1β1 GABAA receptors; co-applied with GABA EC3-5, read-out: EC50): 0.65 µM | current as % of control at 0.1 µM (α1β1R41N GABAA receptors; 100nM, read-out: % of control current at EC3-5): 75 ± 1% | current as % of control at 0.3 µM (α1β1R41N GABAA receptors; 300nM, read-out: % of control current at EC3-5): 90 ± 10% | current as % of control at 1 µM (α1β1R41N GABAA receptors; 1μM, read-out: % of control current at EC3-5): 90 ± 15% | current as % of control at 3 µM (α1β1R41N GABAA receptors; 3µM, read-out: % of control current at EC3-5): 90 ± 20% | current as % of control at 10 µM (α1β1R41N GABAA receptors; 10μM, read-out: % of control current at EC3-5): 70 ± 10% | current as % of control at 30 µM (α1β1R41N GABAA receptors; 30μM, read-out: % of control current at EC3-5): 115 ± 1% | activity at 0.003 µM (α1β3 GABAA receptors; read-out: efficacy, % of control current (GABA EC3-5 = 100%), α1β3, 3 nM): 100 ± 1.9% | activity at 0.1 µM (α1β3 GABAA receptors; read-out: efficacy, % of control current (GABA EC3-5 = 100%), α1β3, 100 nM): 95 ± 5% | activity at 1 µM (α1β3 GABAA receptors; read-out: efficacy, % of control current (GABA EC3-5 = 100%), α1β3, 1 µM): 97.5 ± 0.5%
Structure (SMILES): COc1ccc2[nH]cc3c(=O)n(-c4ccc(N)cc4)nc-3c2c1 [Compound 6, 2-(4-Aminophenyl)-8-methoxy-2,5-dihydro-3H-pyrazolo[4,3-c]quinolin-3-one]

Structure (SMILES): O=C(Nc1c(-c2cccs2)nc2ccccn12)c1ccc(Cl)cc1 [DS2]
modulation [1]: > 800%

GABA current amplitude (α1β2 GABAA receptors; 100 nM GABA): 0.0±0.0 µA | GABA current amplitude (α1β2 GABAA receptors; 1 µM GABA): 0.5±0.2 µA | GABA current amplitude (α1β2 GABAA receptors; 10 μM GABA): 1.9±0.5 µA | GABA current amplitude (α1β2 GABAA receptors; 100 µM GABA): 2.6±0.6 µA | GABA current amplitude (α1β2 GABAA receptors; 1 mM GABA): 3.1±0.7 µA | GABA Hill slope (nH) (α1β2 GABAA receptors; GABA dose-response curve): 0.7±0.1 | GABA current amplitude (α1β3N41R GABAA receptors; 100 nM GABA): 0.0±0.0 µA | GABA current amplitude (α1β3N41R GABAA receptors; 1 µM GABA): 1.3±0.5 µA | GABA current amplitude (α1β3N41R GABAA receptors; 10 μM GABA): 3.5±0.9 µA | GABA current amplitude (α1β3N41R GABAA receptors; 100 µM GABA): 4.0±1.1 µA | GABA current amplitude (α1β3N41R GABAA receptors; 1 mM GABA): 4.1±1.2 µA | GABA Hill slope (nH) (α1β3N41R GABAA receptors; GABA dose-response curve): 1.2±0.1 and ~ 1.2 | GABA current amplitude (α1β1 GABAA receptors; 100 nM GABA): 0.1±0.0 µA | GABA current amplitude (α1β1 GABAA receptors; 1 µM GABA): 0.7±0.1 µA | GABA current amplitude (α1β1 GABAA receptors; 10 μM GABA): 2.2±0.3 µA | GABA current amplitude (α1β1 GABAA receptors; 100 µM GABA): 3.1±0.4 µA | GABA current amplitude (α1β1 GABAA receptors; 1 mM GABA): 4.0±0.5 µA | GABA Hill slope (nH) (α1β1 GABAA receptors; GABA dose-response curve): 0.6±0.3 | GABA current amplitude (α1β1R41N GABAA receptors; 100 nM GABA): 0.1±0.0 µA | GABA current amplitude (α1β1R41N GABAA receptors; 1 µM GABA): 0.7±0.1 µA | GABA current amplitude (α1β1R41N GABAA receptors; 10 μM GABA): 2.3±0.5 µA | GABA current amplitude (α1β1R41N GABAA receptors; 100 µM GABA): 2.9±0.7 µA | GABA current amplitude (α1β1R41N GABAA receptors; 1 mM GABA): 2.8±0.8 µA | GABA Hill slope (nH) (α1β1R41N GABAA receptors; GABA dose-response curve): 1.2±0.1 and ~ 1.2 | GABA current amplitude (α1β3 GABAA receptors; α1β3, 100 nM GABA): 0.0±0.0 µA | GABA current amplitude (α1β3 GABAA receptors; α1β3, 1 µM GABA): 0.5±0.1 µA | GABA current amplitude (α1β3 GABAA receptors; α1β3, 10 μM GABA): 1.9±0.3 µA | GABA current amplitude (α1β3 GABAA receptors; α1β3, 100 µM GABA): 2.7±0.4 µA | GABA current amplitude (α1β3 GABAA receptors; α1β3, 1 mM GABA): 3.5±0.5 µA | GABA Hill slope (nH) (α1β3 GABAA receptors; α1β3, GABA dose-response curve): 0.7±0.0
Structure (SMILES): NCCCC(=O)O [GABA, γ-Aminobutyric acid]
